Laboratory results published in ChEMBL document CHEMBL5131463, “Target-Based Virtual Screening and LC/MS-Guided Isolation Procedure for Identifying Phloroglucinol-Terpenoid Inhibitors of SARS-CoV-2” (J Nat Prod, 2022).
pEC50, pIC50, pKd: −log10 of the molar value.

Columns and labels:
SARS-CoV-2 [1] = experiment: Antiviral activity against SARS-Cov-2 infected in african green monkey Vero E6 cells assessed as inhibition of viral replication pretreated with compound for 1 hr followed by viral infection for 2 hrs measured after 24 hrs post infection by qRt-PCR analysis; type: functional, organism-based; settings: Severe acute respiratory syndrome coronavirus 2, Vero C1008
SARS-CoV-2 [2] = experiment: (§1) Antiviral activity against SARS-Cov-2 infected in african green monkey Vero E6 cells assessed as inhibition of viral replication pretreated with compound for 1 hr followed by viral infection for 2 hrs measured after 24 hrs post infection in presence of wallichins D by qRt-PCR analysis; type: functional, organism-based; settings: Severe acute respiratory syndrome coronavirus 2, Vero C1008
[3] = Cytotoxicity against African green monkey Vero E6 cells by CCK-8 assay; type: toxicity, cell-based, Vero C1008; settings: chlorocebus sabaeus
[4] = Cytotoxicity against African green monkey Vero E6 cells in presence of wallichins D by CCK-8 assay; type: toxicity, cell-based, Vero C1008; settings: chlorocebus sabaeus
[5] = Selectivity index, ratio for CC50 of African green monkey Vero E6 cells to EC50 for SARS-Cov-2 infected in african monkey Vero E6 cells; type: toxicity, Vero C1008; settings: read-out: Selectivity Index
[6] = Selectivity index, ratio of CC50 for African green monkey Vero cells in presence of wallichins D to EC50 for SARS-Cov-2 infected in african green monkey Vero E6 cells assessed as inhibition of viral replication in presence of wallichins D; type: toxicity, Vero C1008; settings: read-out: Selectivity Index
SARS-CoV-2 [7] = experiment: Antiviral activity against SARS-Cov-2 infected in human Calu-3 cells assessed as inhibition of viral replication pretreated with compound for 1 hr followed by viral infection for 2 hrs measured after 24 hrs post infection by qRt-PCR analysis; type: functional, organism-based; settings: Severe acute respiratory syndrome coronavirus 2, Calu-3
SARS-CoV-2 [8] = experiment: Antiviral activity against SARS-Cov-2 infected in human Calu-3 cells assessed as inhibition of viral replication pretreated with compound for 1 hr followed by viral infection for 2 hrs measured after 24 hrs post infection in presence of wallichins D by qRt-PCR analysis; type: functional, organism-based; settings: Severe acute respiratory syndrome coronavirus 2, Calu-3
[9] = Cytotoxicity against human Calu-3 cells by CCK-8 assay; type: toxicity, cell-based
[10] = Cytotoxicity against human Calu-3 cells in presence of wallichins D by CCK-8 assay; type: toxicity, cell-based
[11] = biological target: T1, Replicase polyprotein 1ab (Severe acute respiratory syndrome coronavirus 2, UniProt P0DTD1); experiment: Binding affinity to SARS-CoV-2 3CL protease at 1.875 to 50 uM by SPR assay
[12] = biological target: T1, Replicase polyprotein 1ab; experiment: Binding affinity to SARS-CoV-2 3CL protease at 1.875 to 50 uM in presence of wallichins D by SPR assay
[13] = biological target: T1, Replicase polyprotein 1ab; experiment: Inhibition of SARS-CoV-2 3CL protease using MCA-AVLQSGFR-Lys(Dnp)-Lys-NH2 as flurogenic substrate pre-incubated with compound for 10 mins followed by substrate addition measured after 10 mins by FRET assay
[14] = biological target: T1, Replicase polyprotein 1ab; experiment: Inhibition of SARS-CoV-2 3CL protease using MCA-AVLQSGFR-Lys(Dnp)-Lys-NH2 as flurogenic substrate pre-incubated with compound for 10 mins followed by substrate addition measured after 10 mins in presence of wallichins D by FRET assay
Spike glycoprotein [15] = biological target: T2, Spike glycoprotein (Severe acute respiratory syndrome coronavirus 2, UniProt P0DTC2); experiment: Binding affinity to SARS-CoV-2 Spike glycoprotein receptor-binding domain at 1.875 to 50 uM by SPR assay
SARS-CoV-2 [16] = experiment: Antiviral activity against SARS CoV-2 VSV-delG pseudotype infected in african green monkey Vero E6 at 100 uM measured after 15 hrs post infection relative to control; type: functional; settings: Severe acute respiratory syndrome coronavirus 2, Vero C1008
SARS-CoV-2 [17] = experiment: as §1, with “replication at 10 uM” for “replication”, “analysis relative to control” for “analysis”; type: functional; settings: Severe acute respiratory syndrome coronavirus 2, Vero C1008, time 27 hrs
Spike glycoprotein [18] = biological target: T2, Spike glycoprotein; experiment: Binding affinity to SARS-CoV-2 Spike glycoprotein receptor-binding domain at 1.875 to 50 uM in presence of wallichins D by SPR assay
SARS-CoV-2 [19] = experiment: (§2) Antiviral activity against SARS-Cov-2 infected in african green monkey Vero E6 cells assessed as inhibition of viral replication pretreated with compound for 1 hr followed by viral infection for 2 hrs measured after 24 hrs post infection in presence of wallichins C by qRt-PCR analysis; type: functional, organism-based; settings: Severe acute respiratory syndrome coronavirus 2, Vero C1008
[20] = Cytotoxicity against African green monkey Vero E6 cells in presence of wallichins C by CCK-8 assay; type: toxicity, cell-based, Vero C1008; settings: chlorocebus sabaeus
[21] = Selectivity index, ratio of CC50 for African green monkey Vero cells in presence of […] to EC50 for SARS-Cov-2 infected in african green monkey Vero E6 cells assessed as inhibition of viral replication in presence of wallichins C; type: toxicity, Vero C1008; settings: read-out: Selectivity Index
SARS-CoV-2 [22] = experiment: Antiviral activity against SARS-Cov-2 infected in human Calu-3 cells assessed as inhibition of viral replication pretreated with compound for 1 hr followed by viral infection for 2 hrs measured after 24 hrs post infection in presence of wallichins C by qRt-PCR analysis; type: functional, organism-based; settings: Severe acute respiratory syndrome coronavirus 2, Calu-3
[23] = Cytotoxicity against human Calu-3 cells in presence of wallichins C by CCK-8 assay; type: toxicity, cell-based
[24] = biological target: T1, Replicase polyprotein 1ab; experiment: Binding affinity to SARS-CoV-2 3CL protease at 1.875 to 50 uM in presence of wallichins C by SPR assay
[25] = biological target: T1, Replicase polyprotein 1ab; experiment: Inhibition of SARS-CoV-2 3CL protease using MCA-AVLQSGFR-Lys(Dnp)-Lys-NH2 as flurogenic substrate pre-incubated with compound for 10 mins followed by substrate addition measured after 10 mins in presence of wallichins C by FRET assay
SARS-CoV-2 [26] = experiment: as §2, with “replication at 10 uM” for “replication”, “analysis relative to control” for “analysis”; type: functional; settings: Severe acute respiratory syndrome coronavirus 2, Vero C1008, time 27 hrs
Spike glycoprotein [27] = biological target: T2, Spike glycoprotein; experiment: Binding affinity to SARS-CoV-2 Spike glycoprotein receptor-binding domain at 1.875 to 50 uM in presence of wallichins C by SPR assay
SARS-CoV-2 [28] = experiment: Antiviral activity against SARS-Cov-2 infected in african green monkey Vero E6 cells assessed as inhibition of viral replication at 10 uM pretreated with compound for 1 hr followed by viral infection for 2 hrs measured after 24 hrs post infection by qRt-PCR analysis relative to control; type: functional; settings: Severe acute respiratory syndrome coronavirus 2, Vero C1008, time 27 hrs

C=C1CC[C@H]2[C@@](C)(CCC[C@]2(C)C(=O)O)[C@@H]1C/C=C(\C)[C@@H]1CCc2c(O)c(CC3C(=O)C(C(C)=O)=C(O)C(C)(C)C3O)c(O)c(C(=O)CCC)c2O1 (some centres not stated)
pEC50 (SARS-CoV-2 [1]): 5.35
pEC50 (SARS-CoV-2 [2]): 5.17
CC50 [3]: > 140 µM
CC50 [4]: > 140 µM
selectivity ratio [5]: > 35
selectivity ratio [6]: > 27
pEC50 (SARS-CoV-2 [7]): 4.69
pEC50 (SARS-CoV-2 [8]): 4.61
CC50 [9]: 98.6 µM
CC50 [10]: 72.4 µM
pKd [11]: 4.78
pKd [12]: 4.92
pIC50 [13]: 5.12
pIC50 [14]: 5.25
pKd (Spike glycoprotein [15]): 4.04
inhibition in vivo at 100 µM (SARS-CoV-2 [16]): < 50%
inhibition at 10 µM (SARS-CoV-2 [17]): 87.7%
pKd (Spike glycoprotein [18]): 4.19

C=C1CC[C@H]2[C@@](C)(CCC[C@]2(C)C(=O)O)[C@@H]1C/C=C(\C)[C@H]1CCc2c(O)c(CC3C(=O)C(C(C)=O)=C(O)C(C)(C)C3O)c(O)c(C(=O)CCC)c2O1 (some centres not stated)
pEC50 (SARS-CoV-2 [1]): 4.92
pEC50 (SARS-CoV-2 [19]): 5.17
CC50 [3]: > 140 µM
CC50 [20]: > 140 µM
selectivity ratio [5]: > 11
selectivity ratio [21]: > 27
pEC50 (SARS-CoV-2 [7]): 4.52
pEC50 (SARS-CoV-2 [22]): 4.61
CC50 [9]: 64.3 µM
CC50 [23]: 72.4 µM
pKd [11]: 4.84
pKd [24]: 4.92
pIC50 [13]: 5.09
pIC50 [25]: 5.25
pKd (Spike glycoprotein [15]): 4.17
inhibition in vivo at 100 µM (SARS-CoV-2 [16]): < 50%
inhibition at 10 µM (SARS-CoV-2 [26]): 87.7%
pKd (Spike glycoprotein [27]): 4.19

C=C1CC[C@H]2[C@@](C)(CCC[C@]2(C)C(=O)O)[C@@H]1C/C=C(\C)[C@H]1CCC2=C(O1)C(C)(C)C(O)=C(C(C)=O)C2=O
inhibition at 10 µM (SARS-CoV-2 [28]): 51.7%
